Laboratory results taken from US7816520B2, “5,6-diphenyl-1,2,4-triazinic dimeric derivatives and the use thereof in the form of sun-protective agents” (Pierre Fabre Dermo-Cosmetique, priority 2004, dated 2010).
Several values for one entry are separate records, joined by “and”; a condition that tells them apart may be missing. Identical values can stand only once.

Assays:
[1] = Solubility study in solvents or excipients used in cosmetics; type: physicochemical; settings: for Solubilities: Soluble (solvent in which the compound is soluble): value = solvent; for Solubilities: Insoluble (solvent in which the compound is insoluble): value = solvent named in the Insoluble column
[2] = Photostability in solution in a chemical solvent (Suntest CPS+); type: physicochemical; settings: 25 μg deposited from methanol, absorbance vs non-irradiated control, in % (unit assumed); for Photostability at 5 MED, mean: Suntest irradiation 5 MED; for Photostability at 10 MED, mean: Suntest irradiation 10 MED
Description: A Suntest CPS+(Atlas, Linsengenicht/Altenhasslan, Germany) was used. The Suntest makes it possible to reproduce the solar spectrum and thus to carry out exposures inside at any time without weather constraints.
The radiance of the solar simulator was carefully measured with a spectroradiometer (MSS 2044, Bielefeld, Germany). UVB and UVA intensities were 0.49 mW/cm^2 and 6.32 mW/cm^2, respectively. The MED value defined by COLIPA is 5.6 J/cm^2 in total UV (22). The UV total (UVA+UVB) accounts for 14.8% of the energy delivered by the lamp (power 460 W/m^2). An irradiation dose equivalent to 1 MED corresponds to 37.83 J/cm^2 (in total spectrum) delivered by the lamp.
The Suntest test duration is calculated using the following formula: t=H/E with: • E=illumination energy in W/m^2 • H=irradiation dose in J/m^2 • t=duration of the test in s
The solutions of the compounds are prepared at a concentration of 500 μg/ml in methanol. 50 μl (25 μg) of each solution are deposited in a crystallizer, then irradiated in the Suntest at 5, 10 and/or 20 MED. A non-irradiated control is prepared (deposit of 50 μl of solution and addition of 2.450 ml of methanol). The solvent evaporates during irradiation and the products are taken up in 2.5 ml of methanol. After irradiation, the absorbance of each solution is measured with the UV-visible spectrophotometer (Varian CARY 50 Scan).

[3] = In vitro SPF measurement in a chemical solvent (Diffey and Robson); settings: ethyl acetate, 10 μg/ml, transmittance 290-400 nm
Experimental: The in vitro methods of determining the protective effectiveness of sun products consist of measuring by transmission spectrophotometry the absorption spectrum of the filter in solution or of the product applied on a substrate with the aim of simulating the surface of the skin. The effectiveness against UVB and/or UVA rays, or the effect on the cutaneous response, are then determined by calculation, taking into account or not the UV radiation action spectrum for the damage considered.
The Sayre/Agin and Diffey/Robson method, used since the 1990s, involves a comparative measurement, with the aid of an integrating-sphere spectroradiometer, of the transition from 290 nm to 400 nm in 5 nm steps, the sample being subjected to UV radiation from a stable known source covering the whole of the UV spectrum (unfiltered xenon).
Diffey and Robson evaluate the erythemal response by the following calculation:
[formula] E(λ)=spectral irradiation in W(m-^2) (nm^−1) at 40° N sun at 20° zenith angle • ε=erythematous capacity
[formula] N(λ)=number of values for a given wavelength
The Diffey and Robson formula makes it possible to determine SPF from the measurement of transmittance between 290 nm and 400 nm. Transmittance is measured in solution in ethyl acetate at a concentration of 10 μg/ml using a UV-visible spectrophotometer (Varian CARY 50 Scan).
[formula] T(λ)=transmittance at wavelength λ

[4] = Spectral characteristics: molar extinction coefficient and specific absorbance (UV spectrophotometry in ethyl acetate); type: physicochemical; settings: 10 μg/ml; for Maximum molar extinction coefficient UVA / Maximum specific absorbance UVA: UVA band; for Maximum molar extinction coefficient UVB / Maximum specific absorbance UVB: UVB band
Description: The calculation of the molar extinction coefficient (ε) is made from the Beer-Lambert law:
[formula] Wherein: • A=absorbance • I0=intensity of the incident light • I=intensity of the transmitted light • ε=molar extinction (or molar absorbance) coefficient in M^−1 cm^−1 • l=path length in cm • c=concentration in mol/l
The molar extinction coefficient can be expressed with respect to a given mass of the product. It thus makes it possible to be able to compare the coefficients of extinction between products for the same given quantity. This quantity is 1% by weight. The molar extinction coefficient thus becomes the specific absorbance (A1cm^1%).
It is expressed as follows:
[formula] Wherein: • A1cm^1%=specific absorbance • ε=molar extinction coefficient • M=molar mass
The spectral characteristics of the compounds in comparison with commercial filters at a concentration of 10 μg/ml are summarized in tables 2-1 and 2-2.
Procedure: The products are dissolved in ethyl acetate to a concentration of 10 μg/ml. The spectra are measured using a dual-beam spectrophotometer (Varian CARY 50 Scan) between 290 nm and 400 nm.

[5] = Spectral distribution in UVA and UVB, 290 nm to 400 nm; type: physicochemical; settings: for Absorption peaks: range from 290 nm to 400 nm; for Spectral distribution (UV bands absorbed): absorption spectra, FIGS. 1-3
Description: The products tested are classified according to spectral distribution in UVA and UVB in a range from 290 nm to 400 nm. It is possible to differentiate them according to their spectral distribution: Products with a narrow spectrum: • Products absorbing in the range between 280 nm and 320 nm (UVB) • Products absorbing in the range between 320 nm and 400 nm (UVA) Products with a broad spectrum: • Products absorbing in UVB (280-320 nm) and UVA-II […] • Products covering UVB and UVA (280-400 nm).

[6] = excipient Finsol V NT ® (C12-C15 alkyl benzoate)
[7] = excipient PEG400 ® (polyethylene glycol)

Row | Molecule | Solubility (%) [1, 6] [%] | Solubility (%) [1, 7] [%] | Solubilities: Soluble (solvent in which the compound is soluble) [1] | Solubilities: Insoluble (solvent in which the compound is insoluble) [1] | Photostability at 5 MED, mean [2] | Photostability at 10 MED, mean [2] | SPF [3] | Maximum molar extinction coefficient UVA [4] [M⁻¹ cm⁻¹] | Maximum specific absorbance UVA ([4]; A1cm^1%) | Wavelength of maximum molar extinction coefficient UVA ([4]; the 'at ...' part of the cell) | Wavelength of maximum specific absorbance UVA ([4]; the 'at ...' part of the cell) | Absorption peaks [5] [nm] | Maximum molar extinction coefficient UVB [4] [M⁻¹ cm⁻¹] | Maximum specific absorbance UVB ([4]; A1cm^1%) | Wavelength of maximum molar extinction coefficient UVB ([4]; the 'at ...' part of the cell) | Wavelength of maximum specific absorbance UVB ([4]; the 'at ...' part of the cell) | Spectral distribution (UV bands absorbed) [5] | also measured
1 | 1,4-bis[5,6-(4,4′-dihexyl)-diphenyl-1,2,4-triazin-3-yl]benzene [WP96] | 1 | 2 | DMC and CHCl3 and Et2O and Toluene and Octanol and Methanol | EtOH and Myritol and Acetic acid | 83.30 | 74.35 | 68.02 | – | – | – | – | – | – | – | – | – | – | Solubility (%) ([1]; excipient Myritol 318 ® (caprylic/capric triglycerides)): 0.1%; Solubilities: Soluble, Transcutol ([1]; solvent Transcutol): Transcutol 0.5%
2 | COc1ccc(C(=O)CC(=O)c2ccc(C(C)(C)C)cc2)cc1 [Parsol 1789 ®, reference compound] | – | – | – | – | – | – | 51.1 | 34100 | 1100 | at 360 nm | at 360 nm | 360 | – | – | – | – | – | Maximum molar extinction coefficient UVC ([4]; UVC band): 8633 at M^−1 cm^−1; Maximum specific absorbance UVC ([4]; A1cm^1%, UVC band): 278 at; Wavelength of maximum molar extinction coefficient UVC ([4]; the 'at ...' part of the cell): 275 nm; Wavelength of maximum specific absorbance UVC ([4]; the 'at ...' part of the cell): 275 nm
3 | CCCCC(CC)COC(=O)C=Cc1ccc(OC)cc1 (stereo not shown) [Parsol MCX ®, reference compound] | – | – | – | – | – | – | 20.78 | – | – | – | – | 310 | 24600 | 848 | at 310 nm | at 310 nm | – | –
4 | CC(C)(C)CC(C)(C)c1cc(Cc2cc(C(C)(C)CC(C)(C)C)cc(-n3nc4ccccc4n3)c2O)c(O)c(-n2nc3ccccc3n2)c1 [Tinosorb M ®, reference compound] | – | – | – | – | – | – | 54.07 | 36400 | 552 | at 345 nm | at 345 nm | – | 36600 | 556 | at 305 nm | at 305 nm | – | –
5 | CCCCC(CC)COc1ccc(-c2nc(-c3ccc(OC)cc3)nc(-c3ccc(OCC(CC)CCCC)cc3O)n2)c(O)c1 (stereo not shown) [Tinosorb S ®, reference compound] | – | – | – | – | – | – | 76.19 | 49580 | 789 | at 345 nm | at 345 nm | – | 41750 | 751 | at 310 nm | at 310 nm | – | –
6 | c1ccc(-c2nnc(-c3cccc(-c4nnc(-c5ccccc5)c(-c5ccccc5)n4)c3)nc2-c2ccccc2)cc1 [WP76, 1,3-bis(5,6-diphenyl-1,2,4-triazin-3-yl)benzene] | – | – | DMSO or hot DMF | Water and MeOH and CHCl3 and Acetone and Acetonitrile and Benzene | 69.23 | 62.53 | – | – | – | – | – | 290 | 54000 | 998 | at 290 nm | at 290 nm | absorbs in UVB | –
7 | CC(C)(C)c1ccc(-c2nnc(-c3ccc(-c4nnc(-c5ccc(C(C)(C)C)cc5)c(-c5ccc(C(C)(C)C)cc5)n4)cc3)nc2-c2ccc(C(C)(C)C)cc2)cc1 [WP104, 1,4-bis[5,6-(4,4′-4-di-tert-butyl)-diphenyl-1,2,4-triazin-3-yl]benzene] | – | – | DCM and CHCl3 and Toluene and DMSO and Ethyl acetate | EtOH and MeOH and 1-Octanol and Acetic acid and Myritol and Transcutol | 93.70 | 88.55 | 79.35 | – | – | – | – | 300 | 90000 | 1176 | at 300 nm | at 300 nm | absorb in UVB and UVA | –
8 | CCCCCCCCCCCCc1ccc(-c2nnc(-c3ccc(-c4nnc(-c5ccc(CCCCCCCCCCCC)cc5)c(-c5ccc(CCCCCCCCCCCC)cc5)n4)cc3)nc2-c2ccc(CCCCCCCCCCCC)cc2)cc1 [WP107, 1,4-bis[5,6-bis(4-dodecylphenyl)-1,2,4-triazine-3-yl]benzene] | 1 | 1 | DCM and CHCl3 and Toluene and Octanol and Ethyl acetate and DMSO | EtOH and Acetic acid and MeOH and Myritol and Transcutol | 89.27 | 84.75 | – | 95000 | 783 | at 335 nm | at 335 nm | 300 | 92000 | 757 | at 300 nm | at 300 nm | absorb in UVB and UVA | Solubility (%) ([1]; excipient Arlasolve DMI ® (dimethyl isosorbide)): 1%
9 | CC(C)CCC(C)(C)c1ccc(-c2nnc(-c3ccc(-c4nnc(-c5ccc(C(C)(C)CCC(C)C)cc5)c(-c5ccc(C(C)(C)CCC(C)C)cc5)n4)cc3)nc2-c2ccc(C(C)(C)CCC(C)C)cc2)cc1 [WP151] | 5 | 0.5 | – | – | 76.16 | 70.15 | 67.2 | 60500 | 611 | at 340 nm | at 340 nm | 340 | – | – | – | – | absorb in UVB and UVA | Solubility (%) ([1]; excipient Isopropyl adipate): 1%; Solubility (%) ([1]; excipient Myritol 331 ® (cocoglycerides)): 2%
